Measurements taken from patent publication US9561278B2, “Derivatized hyperbranched polyglycerols” (THE UNIVERSITY OF BRITISH COLUMBIA, priority 2010, dated 2017).
Values after ≈ are worked out from the molar mass of the structure shown.

How the values were obtained:
[1] = cited from earlier work
[2] = system: KU-7-luc bladder cancer cells; test: Cytotoxicity evaluation, MTS cell proliferation assay; type: cell-based; conditions: cisplatin concentration
Procedure: Cytotoxicity studies were performed using the MTS cell proliferation assay (Promega, Madison, Wis.). […] In this study, KU-7-luc bladder cancer cells, kindly provided by Dr. M. Tachibana (Keio University, Tokyo, Japan). The cells were plated at 5000 cells/well into 96-well plates in 180 μL of Dulbecco's modified Eagle (DMEM) medium (Invitrogen Canada, Inc., Burlington, ON) supplemented with 10% fetal bovine serum (FBS) (Invitrogen Canada, Inc., Burlington, ON), 1% penicillin-streptomycin, and 1% L-glutamine and allowed to grow for 24 h at 37° C. in 5% CO2 to reach approximately 80% confluence for cytotoxicity assays. Cells were then incubated for 2 or 72 h with HPGs alone, ranging from 0.01-100 mg/mL, or free cisplatin or cisplatin-loaded HPGs with drug concentrations ranging from 0.01-100 μg/mL. After treatment, the cells were washed twice with Hank's balanced salt solution (HBSS) and 180 μL of fresh culture media was added into each well and cells were allowed to grow for 72 h. Proliferation of these cells was measured using a CellTiter 96 aqueous non-radioactive cell proliferation assay (Promega, Madison, Wis.) as described previously (Mugabe, C.; Hadaschik, B. A.; Kainthan, R. K.; Brooks, D. E.; So, A. I.; Gleave, M. E.; Burt, H. M. BJU Int. 2009, 103, 978-986). […] The absorbance was measured at 490 nm with a reference of 620 nm using a microplate reader.

[3] = In vitro cisplatin release by dialysis; type: physicochemical; conditions: PBS, 37° C.
Procedure: Cisplatin was bound to the carboxylate modified HPGs as described above with final polymer and cisplatin concentrations of 10 and 1 mg/mL, respectively. Into 7000 MWCO Slide-A-Lyzer mini dialysis units (Thermo Scientific, Rockford, Ill.), 20 μL of cisplatin bound polymer solution, or a 1 mg/mL solution of free cisplatin, were added and the samples were dialyzed at 37° C. with stirring against 4 L of 1 mM PBS adjusted to pHs of 4.5, 6.0, and 7.4 or synthetic urine at pH 7.0. Synthetic urine (Surine) was purchased from Dyna-Tek Industries (Lenexa, Kans.). At predetermined time points, three dialysis units were removed from the release media, and the entire contents were removed with three washings of the dialysis unit followed by dilution to 1 mL with fresh release media. The cisplatin concentration of contents of the dialysis units was determined by OPDA colorimetric assay. The cumulative percent drug released was calculated by subtracting the amount of drug remaining from the initial amount of drug in the dialysis bag at the beginning of the experiment. The data were expressed as cumulative percentage of drug released as a function of time.

CC(=O)O[C@@]12CO[C@@H]1C[C@H](O)[C@@]1(C)C(=O)[C@H](O)C3=C(C)[C@@H](OC(=O)[C@H](O)[C@@H](NC(=O)OC(C)(C)C)c4ccccc4)C[C@@](O)([C@@H](OC(=O)c4ccccc4)[C@H]21)C3(C)C [DTX, docetaxel]
aqueous solubility [1]: ~7 µg/mL (≈ 8.66 µM)

N.N.[Cl][Pt][Cl] [free cisplatin, cisplatin]
IC50 ([2]; 2 h incubation): approximately 10 μg/mL | IC50 ([2]; 72 h incubation): 1 µg/mL | time to 100% complete release [3]: ≤ 7 h
